Here are results for eleven compounds from patent US8569327B2, “Phenanthroindolizidine derivative and NFκB inhibitor containing same as active ingredient” (Kabushiki Kaisha Yakult Honsha, priority 2008, dated 2013).

For data set [1], the system named is SV40 promoter. As to the kind of experiment: SV40 promoter activity, luciferase assay in SW480/SV40-Luc cells. Type of data set: cell-based, human. Particulars: for SV40 promoter inhibitory activity IC50: SW480/SV40-Luc cells, luciferase; for IC50: Homo sapiens, SW480, read-out: SV40 promoter inhibitory activity IC50. Put shortly: (§1)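 Stable SW480 colon cancer lines carried luciferase driven by a 5× NFκB response element or by the SV40 promoter. Compound was added 1 h before 50 ng/mL TNFα, followed by 4 h culture at 37 °C; luminescence was read and IC50 taken as 50% inhibition of induced luciferase expression.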

Data set [2] concerns mice transplanted with mouse fibrosarcoma Meth A cells. The data set is described as follows: Animal toxicity test. Conditions: intravenous days 1, 5, 9, observed three weeks. The class given is in vivo. As to the method: Also, the toxicity of known phenanthroindolizidine alkaloid compounds, namely (12aS,13S)-6,7-dimethoxy-9,10,11,12,12a,13-hexahydro-9a-aza-cyclopenta[b]triphenylene-3,13-diol (known compound 1; refer to WO01/023384) and (12aS,13S)-3,6,7-trimethoxy-9,10,11,12,12a,13-hexahydro-9a-aza-cyclopenta[b]triphenylene-13-ol (known compound 2; refer to Planta Med., 2002, 68: 186-188), was simultaneously studied. To a control group, a physiological saline solution, a solvent, was administered. As a result, as shown in the following Tables 35 and 36, all the mice survived in a group administered with the compound of the present invention.

The test system of data set [3] is human non-small cell lung cancer A549 cells. As to the kind of experiment: Inhibitory action on the proliferation of A549 cells. The class given is cell-based. Particulars: 96 hours, TetraColor ONE; for IC50: Homo sapiens, A549. Summed up: (§2)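 Cells seeded overnight (SW480 2000/well in 10% FBS/RPMI1640; A549, HT-29 1000/well in 10% FBS DMEM or DMEM F12 HAM), then compound-treated at 37 °C, 5% CO2 for 48 h (SW480) or 96 h (A549, HT-29). Viable cells counted by TetraColor ONE; IC50 for 50% proliferation inhibition.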

Data set [4] concerns NFκB. As to the kind of experiment: Inhibitory action on the NFκB activity, luciferase assay in SW480/NRE-Luc cells. The class given is cell-based, human. Particulars: for NFκB inhibitory activity IC50: SW480/NRE-Luc cells, compound 1 h then 50 ng/mL TNFα 4 h, luciferase; for IC50: Homo sapiens, SW480, read-out: NFκB inhibitory activity IC50. Put shortly: as §1
For data set [5], the system named is human colon cancer SW480 cells. As to the kind of experiment: Inhibitory action on the proliferation of SW480 cells. Type of data set: cell-based. Particulars: 48 hours, TetraColor ONE; for IC50: Homo sapiens, SW480. Put shortly:
as §2

Data set [6] relates to human colon cancer HT-29 cells. As to the kind of experiment: Inhibitory action on the proliferation of HT-29 cells. Type of data set: cell-based. Particulars: 96 hours, TetraColor ONE; for IC50: Homo sapiens, HT-29. Summed up: as §2

For the compound `COc1cc2c3c(c4ccc(OC(C)=O)cc4c2cc1OC)C[C@@H]1CCCN1C3.Cl` [Compound 34, acetic acid(S)-6,7-dimethoxy-9,10,11,12,12a,13-hexahydro-9a-aza-cyclopenta[b]triphenylene-3-yl ester hydrochloride], in data set [1], the “SV40 promoter inhibitory activity IC50” value is recorded as greater than 100 ng/mL. Further, the Mortality rate in data set [2] (total dose 25 mg/kg) and in data set [2] (total dose 50 mg/kg) was 0/5 throughout. In addition, in data set [3], the “A549 proliferation inhibitory action IC50” value is reported as 0.18 ng/mL. Besides, in data set [4], the “NFκB inhibitory activity IC50” value amounted to 0.026 ng/mL. In addition, the “SW480 proliferation inhibitory action IC50” value in data set [5] is 0.042 ng/mL. For the same compound, the “HT-29 proliferation inhibitory action IC50” value in data set [6] was 0.52 ng/mL.

With `COc1cc2c3c(c4cc(O)ccc4c2cc1OC)C[C@@H]1CCCN1C3.Cl` [Compound 33, (S)-6,7-dimethoxy-9,10,11,12,12a,13-hexahydro-9a-aza-cyclopenta[b]triphenylene-2-ol hydrochloride], the IC50 – broadly, the concentration that gives 50% inhibition – in data set [1] is greater than 100 ng/mL; in data set [3], 0.97 ng/mL; in data set [4] it was 5.3 ng/mL; in data set [5], 10.8 ng/mL; in data set [6] it was 6.4 ng/mL. In addition, the Mortality rate in data set [2] (total dose 25 mg/kg) and in data set [2] (total dose 50 mg/kg) was 0/5 in each case.

`COc1cc2c3c(c4ccc(OC(=O)c5cccs5)cc4c2cc1OC)[C@H](O)[C@@H]1CCCN1C3.Cl` [Compound 19, thiophene-2-carboxylic acid(12aS,13S)-13-hydroxy-6,7-dimethoxy-9,10,11,12,12a,13-hexahydro-9a-aza-cyclopenta[b]triphenylene-3-yl ester hydrochloride]: in data set [1], the “SV40 promoter inhibitory activity IC50” value is greater than 100 ng/mL. Besides, the Mortality rate in data set [2] (total dose 25 mg/kg) and in data set [2] (total dose 50 mg/kg) was 0/5 throughout. In data set [3], the “A549 proliferation inhibitory action IC50” value turned out to be 0.82 ng/mL. The “NFκB inhibitory activity IC50” value in data set [4] stood at 3.0 ng/mL. For the same compound, the “SW480 proliferation inhibitory action IC50” value in data set [5] is reported as 1.3 ng/mL. The “HT-29 proliferation inhibitory action IC50” value in data set [6] amounted to 1.69 ng/mL.

Turning to `COc1cc2c3c(c4ccc(F)cc4c2cc1OC)[C@@H](O)[C@H]1CCCN1C3.Cl` [Compound 6, (12aR,13R)-3-fluoro-6,7-dimethoxy-9,10,11,12,12a,13-hexahydro-9a-aza-cyclopenta[b]triphenylene-13-ol hydrochloride], the IC50 in data set [1] is greater than 10000 ng/mL; in data set [3], 34.1 ng/mL; in data set [4] it was 166 ng/mL; in data set [5] it was 567 ng/mL; in data set [6], 38.8 ng/mL. The Mortality rate in data set [2] (total dose 25 mg/kg) and in data set [2] (total dose 50 mg/kg) was 0/5 each time.

As for `CCc1ccc2c3c(c4cc(OC)c(OC)cc4c2c1)CN1CCC[C@@H]1[C@@H]3O.Cl` [Compound 4, (12aR,13R)-3-ethyl-6,7-dimethoxy-9,10,11,12,12a,13-hexahydro-9a-aza-cyclopenta[b]triphenylene-13-ol hydrochloride], the IC50 in data set [1] was greater than 10000 ng/mL; in data set [3], 101 ng/mL; in data set [4] it was 201 ng/mL; in data set [5] it was 513 ng/mL; in data set [6], 121 ng/mL. Further, the Mortality rate in data set [2] (total dose 25 mg/kg) and in data set [2] (total dose 50 mg/kg) was 0/5 each time.

Turning to `COc1cc2c3c(c4ccc(OC(=O)N(C)C)cc4c2cc1OC)[C@H](O)[C@@H]1CCCN1C3.Cl` [Compound 21, dimethyl-carbamic acid(12aS,13S)-13-hydroxy-6,7-dimethoxy-9,10,11,12,12a,13-hexahydro-9a-aza-cyclopenta[b]triphenylene-3-yl ester hydrochloride], the “SV40 promoter inhibitory activity IC50” value in data set [1] is greater than 10000 ng/mL. The Mortality rate in data set [2] (total dose 25 mg/kg) and in data set [2] (total dose 50 mg/kg) was 0/5 in each case. For the same compound, in data set [3], the “A549 proliferation inhibitory action IC50” value was 16.4 ng/mL. In addition, the “NFκB inhibitory activity IC50” value in data set [4] stood at 23.3 ng/mL. Also, the “SW480 proliferation inhibitory action IC50” value in data set [5] was 38.3 ng/mL. The “HT-29 proliferation inhibitory action IC50” value in data set [6] was found to be 24.2 ng/mL.

With `COc1cc2c3c(c4ccc(OC(=O)N5CCC(N6CCCCC6)CC5)cc4c2cc1OC)[C@H](O)[C@@H]1CCCN1C3` [Compound 13, [1,4′]bipiperidinyl-1′-carboxylic acid(12aS,13S)-13-hydroxy-6,7-dimethoxy-9,10,11,12,12a,13-hexahydro-9a-aza-cyclopenta[b]triphenylene-3-yl ester], in data set [1], the “SV40 promoter inhibitory activity IC50” value is reported as greater than 1000 ng/mL. For the same compound, the Mortality rate in data set [2] (total dose 25 mg/kg) and in data set [2] (total dose 50 mg/kg) was 0/5 each time. Moreover, in data set [3], the “A549 proliferation inhibitory action IC50” value was 7.4 ng/mL. The “NFκB inhibitory activity IC50” value in data set [4] was 20.3 ng/mL. In addition, in data set [5], the “SW480 proliferation inhibitory action IC50” value is reported as 19.5 ng/mL. The “HT-29 proliferation inhibitory action IC50” value in data set [6] was 21.6 ng/mL.

As for `COc1cc2c3c(c4ccccc4c2cc1OC)[C@@H](O)[C@H]1CCCN1C3.Cl` [Compound 2, (12aR,13R)-6,7-dimethoxy-9,10,11,12,12a,13-hexahydro-9a-aza-cyclopenta[b]triphenylene-13-ol hydrochloride], the IC50 in data set [1] was greater than 10000 ng/mL; in data set [3], 211 ng/mL; in data set [4], 387 ng/mL; in data set [5], 1020 ng/mL; in data set [6], 204 ng/mL. Moreover, the Mortality rate in data set [2] (total dose 25 mg/kg) and in data set [2] (total dose 50 mg/kg) was 0/5 throughout.

With `CCOC(=O)Oc1ccc2c3c(c4cc(OC)c(OC)cc4c2c1)CN1CCC[C@H]1[C@H]3O.Cl` [Compound 28, carbonic acid ethyl ester(12aS,13S)-13-hydroxy-6,7-dimethoxy-9,10,11,12,12a,13-hexahydro-9a-aza-cyclopenta[b]triphenylene-3-yl ester hydrochloride], in data set [1], the “SV40 promoter inhibitory activity IC50” value is listed as greater than 10 ng/mL. Moreover, the Mortality rate in data set [2] (total dose 25 mg/kg) and in data set [2] (total dose 50 mg/kg) was 0/5 throughout. Moreover, the “A549 proliferation inhibitory action IC50” value in data set [3] came out at 0.037 ng/mL. Also, the “NFκB inhibitory activity IC50” value in data set [4] turned out to be 1.0 ng/mL. Also, the “SW480 proliferation inhibitory action IC50” value in data set [5] was 0.65 ng/mL. For the same compound, the “HT-29 proliferation inhibitory action IC50” value in data set [6] is on record as 0.064 ng/mL.

`COc1cc2c3c(c4ccc(OC(=O)c5ccco5)cc4c2cc1OC)C[C@@H]1CCCN1C3.Cl` [Compound 38, furan-2-carboxylic acid(S)-6,7-dimethoxy-9,10,11,12,12a,13-hexahydro-9a-aza-cyclopenta[b]triphenylene-3-yl ester hydrochloride]: the “SV40 promoter inhibitory activity IC50” value in data set [1] is greater than 1000 ng/mL. Moreover, the Mortality rate in data set [2] (total dose 25 mg/kg) and in data set [2] (total dose 50 mg/kg) was 0/5 throughout. In addition, the “A549 proliferation inhibitory action IC50” value in data set [3] is reported as 1.1 ng/mL. In data set [4], the “NFκB inhibitory activity IC50” value was found to be 0.50 ng/mL. The “SW480 proliferation inhibitory action IC50” value in data set [5] is 0.62 ng/mL. Besides, the “HT-29 proliferation inhibitory action IC50” value in data set [6] was 3.2 ng/mL.

On to `COc1cc2c3c(c4ccc(OC(C)=O)cc4c2cc1OC)[C@H](OC(C)=O)[C@@H]1CCCN1C3.Cl` [Compound 8, acetic acid(12aS,13S)-3-acetoxy-6,7-dimethoxy-9,10,11,12,12a,13-hexahydro-9a-aza-cyclopenta[b]triphenylene-13-yl ester hydrochloride], for which the “SV40 promoter inhibitory activity IC50” value in data set [1] was greater than 1000 ng/mL. For the same compound, the Mortality rate in data set [2] (total dose 25 mg/kg) and in data set [2] (total dose 50 mg/kg) was 0/5 throughout. In addition, in data set [3], the “A549 proliferation inhibitory action IC50” value was 1.5 ng/mL. Besides, the “NFκB inhibitory activity IC50” value in data set [4] was 63.2 ng/mL. Moreover, the “SW480 proliferation inhibitory action IC50” value in data set [5] was 17.0 ng/mL. In data set [6], the “HT-29 proliferation inhibitory action IC50” value was 5.8 ng/mL.
